Experimental data: PubChem BioAssay AID330 (DTP/NCI, 2004)
Values joined by “and” are separate entries in the source; they are usually repeats but may differ in a detail not shown here. Equal entries are not always repeated. Toxic doses and inconclusive results are not listed. Square brackets hold non-standard residues; d marks the D form. Peptide text beside a SMILES is read from it. ξ: configuration not given here. ξPhe(4-N(CH2CH2Cl)2) = NC(Cc1ccc(N(CCCl)CCCl)cc1)C(=O)O

System: P388 leukemia ip, CD2F1 mice, survival T/C
Test: NCI In Vivo Anticancer Drug Screen. Data for tumor model P388 Leukemia (intraperitoneal) in CD2F1 (CDF1) mice
Details: endpoint: median survival time, higher = longer survival
How it was run: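 Mice carrying the transplanted tumor received test compound or vehicle. Survival was recorded in each group, and the value is the treated-group measurement divided by that of the vehicle-treated control group.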

[1] = dose: 50.0 mg/kg/injection, schedule: Q01DX005 (ip), vehicle: Klucel (hydroxypropylcellulose) (HPC)
[2] = dose: 100.0 mg/kg/injection, schedule: Q01DX005 (ip), vehicle: Klucel (hydroxypropylcellulose) (HPC)
[3] = dose: 200.0 mg/kg/injection, schedule: Q01DX005 (ip), vehicle: Klucel (hydroxypropylcellulose) (HPC)
[4] = dose: 25.0 mg/kg/injection, schedule: Q01DX009 (ip), vehicle: saline
[5] = dose: 50.0 mg/kg/injection, schedule: Q01DX009 (ip), vehicle: saline
[6] = dose: 100.0 mg/kg/injection, schedule: Q01DX009 (ip), vehicle: saline
[7] = dose: 50.0 mg/kg/injection, schedule: Q01DX005 (ip), vehicle: saline with Tween-80
[8] = dose: 100.0 mg/kg/injection, schedule: Q01DX005 (ip), vehicle: saline with Tween-80
[9] = dose: 200.0 mg/kg/injection, schedule: Q01DX005 (ip), vehicle: saline with Tween-80

CC1(Cl)CC(C)(/C=C/Cl)C(Br)CC1Cl (configuration not stated)
T/C (dose: 41.5 mg/kg/injection, schedule: Q01DX005 (ip), vehicle: Klucel (hydroxypropylcellulose) (HPC)): 91 % of control
T/C (dose: 83.0 mg/kg/injection, schedule: Q01DX005 (ip), vehicle: Klucel (hydroxypropylcellulose) (HPC)): 91 % of control
T/C (dose: 166.0 mg/kg/injection, schedule: Q01DX005 (ip), vehicle: Klucel (hydroxypropylcellulose) (HPC)): 100 % of control

c1ccc(ON=C2c3ccccc3-c3ccccc32)cc1
T/C (dose: 75.0 mg/kg/injection, schedule: Q04DX003 (ip), vehicle: saline): 113 % of control
T/C (dose: 125.0 mg/kg/injection, schedule: Q04DX003 (ip), vehicle: saline): 109 % of control
T/C (dose: 250.0 mg/kg/injection, schedule: Q04DX003 (ip), vehicle: saline): 104 % of control

CNC1NC(=O)c2ccccc2N1Cc1ccc(F)cc1 (configuration not stated)
T/C (dose: 60.0 mg/kg/injection, schedule: Q01DX005 (ip), vehicle: Klucel (hydroxypropylcellulose) (HPC)): 94 % of control
T/C (dose: 120.0 mg/kg/injection, schedule: Q01DX005 (ip), vehicle: Klucel (hydroxypropylcellulose) (HPC)): 92 % of control
T/C (dose: 240.0 mg/kg/injection, schedule: Q01DX005 (ip), vehicle: Klucel (hydroxypropylcellulose) (HPC)): 94 % of control

N#Cc1ccc(-c2nn[nH]n2)cc1
T/C [1]: 102 % of control
T/C [2]: 95 % of control
T/C [3]: 96 % of control

N=C(N)COCc1ccccc1
T/C [4]: 116 % of control
T/C [5]: 120 % of control
T/C [6]: 111 % of control

CC1(C)CC(=O)C(=N/O)/C(=N\NC(N)=S)C1
T/C [7]: 102 % of control
T/C [8]: 103 % of control
T/C [9]: 110 % of control

CCOC(=O)CSCC(N)=O
T/C [5]: 100 % of control
T/C [6]: 100 % of control
T/C (dose: 200.0 mg/kg/injection, schedule: Q01DX009 (ip), vehicle: saline): 98 % of control

CCOC(=O)C(Cc1ccc(N(CCCl)CCCl)cc1)NC(=O)C(Cc1ccccc1)NC(=O)C(NC(=O)CNC(=O)C1CCCN1)C(C)C (configuration not stated) (H-PGVF[ξPhe(4-N(CH2CH2Cl)2)]-OEt; configuration not given here)
T/C (dose: 10.0 mg/kg/injection, schedule: Q04DX003 (ip), vehicle: water): 150 % of control
T/C (dose: 20.0 mg/kg/injection, schedule: Q04DX003 (ip), vehicle: water): 173 % of control
T/C (dose: 40.0 mg/kg/injection, schedule: Q04DX003 (ip), vehicle: water): 193 % of control

C=CCN1C(=O)CS/C1=N\NC(=O)Cc1nc2ccccc2[nH]1
T/C (dose: 100.0 mg/kg/injection, schedule: Q01DX001 (ip), vehicle: Klucel (hydroxypropylcellulose) (HPC)): 101 % of control
T/C (dose: 200.0 mg/kg/injection, schedule: Q01DX001 (ip), vehicle: Klucel (hydroxypropylcellulose) (HPC)): 105 % of control
T/C (dose: 400.0 mg/kg/injection, schedule: Q01DX001 (ip), vehicle: Klucel (hydroxypropylcellulose) (HPC)): 92 % of control

CCOC(=O)C/C(O)=C(\N=Nc1nc[nH]c1C(N)=O)C(=O)OCC
T/C [7]: 105 % of control
T/C [8]: 91 % of control
T/C [9]: 97 % of control

CC1C2c3ccccc3C(c3ccccc32)C1CO (configuration not stated)
T/C [7]: 92 % of control
T/C [8]: 91 % of control
T/C [9]: 90 % of control

CCN(CC)CCSC(=O)C(O)(c1ccccc1)c1ccccc1
T/C (dose: 2.5 mg/kg/injection, schedule: Q01DX009 (ip), vehicle: saline): 108 % of control
T/C (dose: 5.0 mg/kg/injection, schedule: Q01DX009 (ip), vehicle: saline): 117 % of control
T/C (dose: 10.0 mg/kg/injection, schedule: Q01DX009 (ip), vehicle: saline): 101 % of control
T/C (dose: 12.5 mg/kg/injection, schedule: Q01DX009 (ip), vehicle: saline): 100 % of control
T/C (dose: 20.0 mg/kg/injection, schedule: Q01DX009 (ip), vehicle: saline): 90 % of control
T/C [4]: 98 % of control
T/C (dose: 40.0 mg/kg/injection, schedule: Q01DX009 (ip), vehicle: saline): 101 % of control
T/C [5]: 101 % of control (2×) and 107 % of control

Cc1c(C(=O)CC2OC(=O)C(Cl)=C2Cl)c2ccccc2n1C(=O)Nc1ccc(Cl)cc1 (configuration not stated)
T/C (dose: 60.0 mg/kg/injection, schedule: Q01DX005 (ip), vehicle: saline with Tween-80): 93 % of control
T/C (dose: 120.0 mg/kg/injection, schedule: Q01DX005 (ip), vehicle: saline with Tween-80): 99 % of control
T/C (dose: 240.0 mg/kg/injection, schedule: Q01DX005 (ip), vehicle: saline with Tween-80): 94 % of control

Nc1nc(=S)c2[nH]cnc2[nH]1
T/C (dose: 0.25 mg/kg/injection, schedule: Q01DX009 (ip), vehicle: acid diluted with saline): 114 % of control
T/C (dose: 0.25 mg/kg/injection, schedule: Q01DX009 (ip), vehicle: alkali diluted with saline): 120 % of control
T/C (dose: 0.38 mg/kg/injection, schedule: Q01DX005 (ip), vehicle: alkali diluted with saline): 108 % of control
T/C (dose: 0.5 mg/kg/injection, schedule: Q01DX009 (ip), vehicle: acid diluted with saline): 106 % of control
T/C (dose: 0.5 mg/kg/injection, schedule: Q01DX009 (ip), vehicle: alkali diluted with saline): 119 % of control
T/C (dose: 0.75 mg/kg/injection, schedule: Q01DX005 (ip), vehicle: alkali diluted with saline): 115 % of control
T/C (dose: 1.0 mg/kg/injection, schedule: Q01DX009 (ip), vehicle: acid diluted with saline): 112 % of control
T/C (dose: 1.12 mg/kg/injection, schedule: Q04DX003 (ip), vehicle: acid diluted with saline): 109 % of control
T/C (dose: 1.44 mg/kg/injection, schedule: Q01DX009 (ip), vehicle: acid diluted with saline): 155 % of control
T/C (dose: 1.5 mg/kg/injection, schedule: Q01DX005 (ip), vehicle: alkali diluted with saline): 123 % of control
T/C (dose: 1.5 mg/kg/injection, schedule: Q01DX009 (ip), vehicle: acid diluted with saline): 154 % of control
T/C (dose: 1.5 mg/kg/injection, schedule: Q01DX009 (ip), vehicle: alkali diluted with saline): 151 % of control
T/C (dose: 2.0 mg/kg/injection, schedule: Q01DX005 (ip), vehicle: alkali diluted with saline): 157 % of control
T/C (dose: 2.0 mg/kg/injection, schedule: Q01DX009 (ip), vehicle: acid diluted with saline): 106 % of control
T/C (dose: 2.0 mg/kg/injection, schedule: Q04DX003 (ip), vehicle: alkali diluted with saline): 119 % of control
T/C (dose: 2.25 mg/kg/injection, schedule: Q04DX003 (ip), vehicle: acid diluted with saline): 119 % of control
T/C (dose: 2.4 mg/kg/injection, schedule: Q01DX009 (ip), vehicle: acid diluted with saline): 154 % of control and 170 % of control
T/C (dose: 2.5 mg/kg/injection, schedule: Q04DX003 (ip), vehicle: alkali diluted with saline): 116 % of control
T/C (dose: 3.24 mg/kg/injection, schedule: Q04DX003 (ip), vehicle: acid diluted with saline): 117 % of control
T/C (dose: 4.5 mg/kg/injection, schedule: Q01DX009 (ip), vehicle: saline): 122 % of control
T/C (dose: 4.5 mg/kg/injection, schedule: Q04DX003 (ip), vehicle: acid diluted with saline): 119 % of control
T/C (dose: 5.0 mg/kg/injection, schedule: Q04DX003 (ip), vehicle: alkali diluted with saline): 108 % of control
T/C (dose: 6.0 mg/kg/injection, schedule: Q01DX005 (ip), vehicle: alkali diluted with saline): 116 % of control
T/C (dose: 6.0 mg/kg/injection, schedule: Q01DX009 (ip), vehicle: acid diluted with saline): 105 % of control
T/C (dose: 12.0 mg/kg/injection, schedule: Q01DX005 (ip), vehicle: alkali diluted with saline): 113 % of control
T/C (dose: 20.0 mg/kg/injection, schedule: Q04DX003 (ip), vehicle: alkali diluted with saline): 120 % of control

CCCS(=O)(=O)CCC(=O)c1ccccc1
T/C (dose: 100.0 mg/kg/injection, schedule: Q04DX002 (ip), vehicle: saline): 101 % of control
T/C (dose: 200.0 mg/kg/injection, schedule: Q04DX002 (ip), vehicle: saline): 107 % of control
T/C (dose: 400.0 mg/kg/injection, schedule: Q04DX002 (ip), vehicle: saline): 102 % of control

N/C(=N\N=C1CCCCC1)N[N+](=O)[O-]
T/C [1]: 105 % of control
T/C [2]: 102 % of control
T/C [3]: 102 % of control

Clc1nnc(Cl)c(Cl)c1Cl
T/C (dose: 0.1 mg/kg/injection, schedule: Q01DX009 (ip), vehicle: saline with Tween-80): 100 % of control
T/C (dose: 0.1 mg/kg/injection, schedule: Q04DX003 (ip), vehicle: saline with Tween-80): 100 % of control
T/C (dose: 0.2 mg/kg/injection, schedule: Q01DX009 (ip), vehicle: saline with Tween-80): 95 % of control
T/C (dose: 0.2 mg/kg/injection, schedule: Q04DX003 (ip), vehicle: saline with Tween-80): 100 % of control
T/C (dose: 0.38 mg/kg/injection, schedule: Q04DX003 (ip), vehicle: saline with Tween-80): 90 % of control
T/C (dose: 0.4 mg/kg/injection, schedule: Q04DX003 (ip), vehicle: saline with Tween-80): 100 % of control
